In data set [1] the test system is P388 lymphocytic leukemia. Put plainly: Drug combination efficacy study in advanced systemic P388 lymphocytic leukemia model. The data set is classed as in vivo, mice. As for the experimental part: (§1) Female B6D2F1 mice (Charles River Laboratories, Raleigh, N.C.) were used in these studies. All procedures were performed in accordance with protocols approved by the SB Institutional Animal Care and Use Committee, and met or exceeded the standards of the American Association for the Accreditation of Laboratory Animal Care (AAALAC), the United States Department of Health and Human Services and all local and federal animal welfare laws.
(§2) MAP and PCR tested P388 lymphocytic leukemia cell lines obtained originally from the National Cancer Institute Repository at Frederick Cancer Research Center, Frederick, Md., were used in these studies. P388 lymphocytic leukemia were maintained by serial i.p. transplantation in syngeneic B6D2F1 mice. […] Protocols for screening chemical agents and natural products against animal tumors and other biological systems. Cancer Chemother. […] All tumor tissues are presently in cryopreservation within the department of Molecular and Cellular Oncology.
(§3) For efficacy studies, P388 lymphocytic leukemia were harvested aseptically from the peritoneal cavity of donor mice, pooled, diluted with Earle's Balanced Salt Solution and trypan blue, and counted using a hemocytometer. An inoculum of 0.2 ml (5×10^6/ml) was implanted i.v. in the lateral tail vein of female BDF1 mice using a 25 gauge needle. The tumor inoculum was tested for bacterial contamination as determined by a 24-hr incubation in thioglycollate broth.
(§4) Each experiment included two groups of untreated tumor-bearing controls, and a titration of tumor cells in untreated animals (ranging from 10^1 to 10^5 so that drug-induced cell kill (NCK) could be calculated. Drug treatment was initiated 48 hrs after tumor implantation. Specific endpoints calculated from this model are % increase in median lifespan (% ILS) relative to the untreated control animals and log net change in tumor cell burden following therapy (NCK).

Data set [2] in a line: in vivo. The note with it: mouse.
Data set [3] deals with MX-1 breast carcinoma.
The nature of data set [4]: Drug combination efficacy study in advanced systemic P388 lymphocytic leukemia model. The data set is classed as in vivo, mice. The note with it: female, B6D2F1, mouse, in vivo. As for the experimental part: as §1, §2, §3, §4
Data set [5] in a line: First Time in Human Study of Compound A, monotherapy once every 21 days. The note with it: once every 21 day schedule, prior study in humans. The data set is classed as in vivo.
Setting [6] is: cisplatin alone 4 mg/kg, ip q4dx3, first cisplatin study.
Where [7] appears, read: cisplatin alone 4 mg/kg, repeat cisplatin study.
Setting [8] is: 5FU 26 mg/kg alone, ip Days 2, 6, 10.
Setting [9] is: 5FU 43 mg/kg alone, ip Days 2, 6, 10.
Setting [10] is: 5FU 72 mg/kg alone, ip Days 2, 6, 10.
[11] abbreviates: 5FU 120 mg/kg alone, ip Days 2, 6, 10.
Setting [12] is: Compound A 2.6 mg/kg alone, ip Days 2, 6, 10, 5FU study.
[13] abbreviates: Compound A 4.3 mg/kg alone, ip Days 2, 6, 10, 5FU study.
The mark [14] stands for this setting: Compound A alone 4.3 mg/kg (MTD), ip q4dx3, first cisplatin study.
Where [15] appears, read: Compound A alone 4.3 mg/kg (MTD), doxorubicin study.
The mark [16] stands for this setting: Compound A alone 6 mg/kg (MTD), irinotecan study.
The mark [17] stands for this setting: Compound A alone 7.2 mg/kg (MTD), repeat cisplatin study.
The mark [18] stands for this setting: Compound A alone 10 mg/kg, gemcitabine study.
Where [19] appears, read: ip, single agent, ip Days 2, 6, 10, gemcitabine study, read-out: MTD.
The mark [20] stands for this setting: ip, single agent, ip q4dx3 Days 2, 6, 10, irinotecan study, read-out: MTD.
Where [21] appears, read: doxorubicin alone 12 mg/kg, ip Days 2, 6, 10.
The mark [22] stands for this setting: irinotecan alone 54 mg/kg, ip q4dx3.
Setting [23] is: irinotecan alone 150 mg/kg (MTD), ip q4dx3.
[24] abbreviates: gemcitabine alone 200 mg/kg, ip Days 2, 6, 10.

In the case of `N.N.[Cl][Pt][Cl]` [Cisplatin, cisplatin, reference compound], the figures for the “% ILS (increase in life span)” value in data set [1] (setting [6]) and in data set [1] (setting [7]) were 200% and 133%, respectively. Moreover, the figures for the “log cell kill (net cell kill)” value in data set [1] (setting [6]) and in data set [1] (setting [7]) were 3.7 log and 1.7 log, respectively.

`O=c1[nH]cc(F)c(=O)[nH]1` [Compound 5FU, 5-fluorouracil, reference compound]: the “% ILS” value in data set [1] (setting [8]) amounted to 33%; in data set [1] (setting [9]) it was 55%; in data set [1] (setting [10]), 44%; in data set [1] (setting [11]), 22%. Also, the “Net Cell Kill” value in data set [1] (setting [8]) was “[0] log”; in data set [1] (setting [9]), “[0] log”; in data set [1] (5FU 43 mg/kg alone, ip Days 2, 6, 10, listed as 5 FU) it was “no log cell kill”; in data set [1] (setting [10]), “[0] log”; in data set [1] (setting [11]), “[0] log”. In data set [1] (5FU 200 mg/kg alone, ip Days 2, 6, 10), the “toxicity at dose level” value is “Toxic”.

In data set [2], `CCCCCOC(=O)Nc1nc(=O)n([C@@H]2O[C@H](C)[C@@H](O)[C@H]2O)cc1F` [CAP, Capecitabine, reference compound] returned an MTD of 500 mg/kg. Also, the MX-1 tumor growth entry in data set [3] (CAP alone 500 and 250 mg/kg, daily for two 5 day cycles with 2 day rest) is given as “slight delay in MX-1 tumor growth”.

`CS(=O)(=O)O.Cc1ccc(C(=O)N(CCCN)[C@@H](c2nc3cc(Cl)ccc3c(=O)n2Cc2ccccc2)C(C)C)cc1` [Compound A, N-(3-aminopropyl)-N-[(1R)-1-[7-chloro-3,4-dihydro-4-oxo-3-(phenylmethyl)-2-quinazolinyl]-2-methylpropyl]-4-methylbenzamide, mesylate salt]: the “% ILS” value in data set [1] (setting [12]) is 78%; in data set [1] (setting [13]), 122%; in data set [1] (Compound A 7.2 mg/kg (MTD) alone, ip Days 2, 6, 10, 5FU study), 178%. In addition, the entries for the “Net Cell Kill” value in data set [1] (setting [12]) and in data set [1] (setting [13]) were “[0] log” and “[1.1] log”, respectively. The “toxicity at dose level” value in data set [1] (Compound A 12 mg/kg alone, ip Days 2, 6, 10, 5FU study) is on record as “Toxic”; in data set [1] (Compound A 20 mg/kg alone, ip Days 2, 6, 10, 5FU study), “Toxic”. Moreover, the “% ILS (increase in life span)” value in data set [1] (setting [14]) is on record as 144%; in data set [1] (setting [15]) it was 156%; in data set [1] (setting [16]) it was 167%; in data set [1] (setting [17]), 144%; in data set [1] (setting [18]), 211%. In addition, the “log cell kill (net cell kill)” value amounted to 1.8 log in data set [1] (setting [14]); 1.3 log in data set [1] (setting [15]); 3.0 log in data set [1] (setting [16]); 2.2 log in data set [1] (setting [17]); 6.2 log in data set [1] (setting [18]). Also, in data set [1] (combined with 0.86 or 1.44 mg/kg cisplatin, first cisplatin study), the “MTD of Compound A in combination versus alone” value is listed as “higher MTD”. For the same compound, the MTD in data set [4] (intraperitoneal, increased from 7.2 alone, repeat cisplatin study, read-out: MTD of Compound A in combination with cisplatin) is 12 mg/kg; in data set [4] (ip, single agent, ip Days 2, 6, 10, doxorubicin study, read-out: MTD), 4.3 mg/kg; in data set [4] (setting [19]), at least 10 mg/kg; in data set [4] (ip, single agent, ip q4dx3, 5FU study, read-out: MTD) it was 7.2 mg/kg; in data set [4] (ip, single agent, ip q4dx3, first cisplatin study, read-out: MTD), 4.3 mg/kg; in data set [4] (ip, single agent, ip q4dx3, repeat cisplatin study, read-out: MTD), 7.2 mg/kg. The MTD in data set [4] (setting [20]) was 6 mg/kg; in data set [2] it was 10 mg/kg; in data set [5], 18 mg/m^2. Also, in data set [3] (Compound A alone at MTD of 10 mg/kg, q4dx3), the “activity against MX-1” value is recorded as “refractory”.

As to `COc1cccc2c1C(=O)c1c(O)c3c(c(O)c1C2=O)C[C@@](O)(C(=O)CO)C[C@@H]3O[C@H]1C[C@H](N)[C@H](O)[C@H](C)O1` [Doxorubicin, doxorubicin, reference compound], in data set [1] (setting [21]), the “% ILS (increase in life span)” value came to 89% and the “log cell kill (net cell kill)” value is “no log cell kill”.

Consider `CCc1c2c(nc3ccc(OC(=O)N4CCC(N5CCCCC5)CC4)cc13)-c1cc3c(c(=O)n1C2)COC(=O)[C@]3(O)CC` [Irinotecan, irinotecan, reference compound], for which, in data set [1] (setting [22]), the “% ILS (increase in life span)” value was 211% and the “log cell kill (net cell kill)” value was 4.8 log. In data set [1] (setting [23]), the “% ILS (increase in life span)” value was above 450% and the “log cell kill (net cell kill)” value is given as above 6.9 log. Further, the MTD in data set [4] (setting [20]) is 150 mg/kg.

For `Nc1ccn([C@@H]2O[C@H](CO)[C@@H](O)C2(F)F)c(=O)n1` [Gemcitabine, gemcitabine, reference compound], in data set [1] (setting [24]), the “% ILS (increase in life span)” value is reported as 289% and the “log cell kill (net cell kill)” value is above 7.3 log. Moreover, in data set [1] (gemcitabine alone at 120 mg/kg or less), the “efficacy at lower doses” value was “less effective”. Moreover, the MTD in data set [4] (setting [19]) is at least 200 mg/kg.
